For orientation: IC50 means the concentration that inhibits the measured activity by half.

The record followed here is patent publication US20250084074A1, “SUBSTITUTED HETEROCYCLES AS HSET INHIBITORS” (MERCK PATENT GMBH, priority 2022, published 2025).

In this assay the target is HSET full length protein (Homo sapiens (Human), UniProt Q9BW19). Kind of assay: HSET ADP-Glo Assay S - 3 μM ATP. Type of assay: biochemical. As to conditions: 5 nM HSET, 70 μg/mL microtubule, 80 min at rt, read-out: COMBINED HSET ADP GLO IC50. On the procedure: Example 281: Testing compounds of the present invention for inhibitory activities against HSET—HSET ADP-Glo Assay S—3 μM ATP
Chain of HSET full length protein (Q9BW19 whole entry): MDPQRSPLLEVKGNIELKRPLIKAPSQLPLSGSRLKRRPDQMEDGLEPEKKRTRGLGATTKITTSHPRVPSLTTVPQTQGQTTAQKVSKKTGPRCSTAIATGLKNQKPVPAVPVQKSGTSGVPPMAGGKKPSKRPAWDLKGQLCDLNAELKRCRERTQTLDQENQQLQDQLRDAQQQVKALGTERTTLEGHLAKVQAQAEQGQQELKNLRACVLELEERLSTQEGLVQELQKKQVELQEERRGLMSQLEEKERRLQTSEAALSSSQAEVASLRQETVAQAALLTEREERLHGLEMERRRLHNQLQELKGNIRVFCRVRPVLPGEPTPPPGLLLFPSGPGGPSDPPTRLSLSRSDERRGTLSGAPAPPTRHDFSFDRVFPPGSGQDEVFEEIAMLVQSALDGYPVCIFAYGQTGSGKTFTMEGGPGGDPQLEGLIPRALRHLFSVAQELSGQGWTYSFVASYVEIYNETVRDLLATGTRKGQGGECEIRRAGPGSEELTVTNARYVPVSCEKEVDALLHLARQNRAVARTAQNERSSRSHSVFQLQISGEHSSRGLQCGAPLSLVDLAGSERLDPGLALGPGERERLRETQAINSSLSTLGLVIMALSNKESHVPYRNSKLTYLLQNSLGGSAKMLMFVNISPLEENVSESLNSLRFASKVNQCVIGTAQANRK
Reagents: (+4° C. Storage) • Paclitaxel Prod.No.TXD.01 2 mM in DMSO (from Universal Biologicals Cambridge). • Tubulin Protein (Pre-formed Microtubules): Bovine Brain Prod.No.MT001-XL Lot.025 10 mg/mL (from Universal Biologicals Cambridge).
Reagents: (−80° C. Storage) • MT001-XL—Tubulin Protein (Pre-formed Microtubules): Bovine Brain—reconstituted in buffer—15 mM PIPES pH7, 1 mM MgCl2, 20 μM paclitaxel (aliquots at 10 mg/mL) from Universal Biologicals Cambridge. • HSET full length protein—Current batch is FL HSET Prep1 (SEQ-000096_002-01_01) • Buffer is 20 mM Hepes pH 7.5, 200 mM NaCl, 2 mM TCEP, 5% glycerol (5 μL aliquots at 10.2 μM)
Reagents: (−20° C. Storage) • ADP-Glo Kinase Assay kit (Promega Prod.No.V9102) 10,000 assay points • ADP-Glo reagent (50 mL), Kinase Detection Reagent (100 mL), and Ultrapure ATP (10 mM) aliquoted
Buffer Stocks (filtered and stored at rt for up to 1 month) • HEPES acid, 4-(2-Hydroxyethyl)piperazine-1-ethanesulfonic acid MW:238, 238.3 mg/mL=1 M • 7149 mg/30 mL=1M (pH to 6.8 with 5 M NaOH) • PIPES, 1,4-Piperazinediethanesulfonic acid MW: 302.4, 30.24 mg/mL=100 mM; 907.2 mg/30 mL=100 mM (pH to 7 with 5 M NaOH, white cloudy suspension until the pH changes) • EGTA, Ethylene glycol-bis(2-aminoethylether)-N,N,N′,N′-tetraacetic acid MW: 380.35, 38.035 mg/mL=100 mM • 1901.75 mg/50 mL=100 mM (pH to ˜7 with 5 M NaOH)—takes a long time to get into solution and for pH to stabilize • Triton-X-100, MW: 625, 62.5 mg/mL=100 mM (6.25% w/v) (viscous, pipette Triton X-100 with a Gilson using a trimmed pipette tip)
ECHO Protocol • Create an ECHO intermediate plate by adding 24.5 μL DMSO to columns 1 & 2, and 40 μL DMSO to columns 23 & 24 of an ECHO 384PP plate • Add 100 nL of compound/DMSO per well in 384-well Proxi-Plate Plus (white) —Perkin Elmer Cat #6008289 using ECHO dose response protocol 100 nL normal to proxi_8pt_200 uM.
Assay buffer (Keep on ice): HEPES pH 6.8, MgCl2, EGTA, Triton X-100, DTT, HPLC H2O Microtubule Working Solution (3.2): • 1 ml PM buffer: PIPES pH 7.0, MgCl2, HPLC H2O, Paclitaxel, mix well, store at rt • Then add 26.4 μL of 10 mg/ml microtubules to 724 μL of the above PM buffer to make 750 μL of microtubule working solution @350 μg/mL microtubules (store at rt)
Stock HSET enzyme solution (3.1)—keep on ice • Add 1.33 μL 10.2 μM HSET Prepi (SEQ-000096_002-01_01) to 1358 μL assay buffer to make a 10 nM stock for a 5 nM final assay concentration (1/1020 dilution).
HSET/Microtubule working solution (3.3) • Mix solutions 3.1 and 3.2 in the ratio of 2.5:1 (1214.3 μL 3.1+485.7 μL 3.2) keep at rt for 15 min • 3.2 is diluted 3.5-fold, 3.1 is diluted 1.4-fold BLANK solution is 357 μL 2XAB+143 μL microtubule working solution 3.2. (Same proportions as HSET/Microtubule working solution (3.3))
ATP Working solution is 1 μL 10 mM UltraPure ATP (Promega kit)+999 μL ddH20 gives 10 μM ATP for a 3 μM final assay concentration, stored on ice.
Assay procedure in PROXIPLATE 384 PLUS WHITE (Perkin Elmer) plates (Remove 2.4 mL ADP Glo and 4.5 mL Kinase detection reagent from freezer to warm up to rt) • Add 3.5 μL BLANK solution to assay plate (column 12) • Add 3.5 μL HSET/Microtubule solution (3.3) (columns 1-11 & 13-24) • Centrifuge at 1000 rpm for 1 min • (pre-incubate enzyme and compound for 10 min)
Add 1.5 μL of 10 μM ATP to start reaction gives a final [HSET] of 5 nM, [ATP] of 3 μM and [microtubule] of 70 μg/mL, centrifuge at 1000 rpm for 1 min and incubated at rt for 80 min.
After the 80-minute incubation, stop reaction by adding 5 μL ADP-Glo reagent to all wells. Centrifuge for 1 min at 1000 rpm, leave for 40 min at rt.
In the dark/away from direct light, add 10 μL Kinase Detection Reagent (KDR) to all wells, Seal plate with a Topseal (Perkin Elmer Cat #6050185) and centrifuge as above, leave for 40 min at rt covered in foil. […]
In general terms: ADP-Glo turns the ADP formed in a reaction into a luminescent signal.
Turning to `Cc1nc(-c2ccc3ccnc(N[C@H]4C[C@@H](C(=O)Nc5nc(C)c(C(=O)O[C@H](C)C(F)(F)F)s5)C4)c3c2)no1` (stereo in doubt) [Example 114, [(1 R)-2,2,2-trifluoro-1-methyl-ethyl]4-methyl-2-[[3-[[7-(5-methyl-1,2,4-oxadiazol-3-yl)-1-isoquinolyl]amino]cyclobutanecarbonyl]amino]thiazole-5-carboxylate], the IC50 stood at 17 nM.

For the compound `Cc1nc(-c2ccc3ccnc(N[C@H]4C[C@@H](C(=O)Nc5nc(C)c(C(=O)O[C@@H](C)C(F)(F)F)s5)C4)c3c2)no1` (stereo in doubt) [Example 115, [(1 S)-2,2,2-trifluoro-1-methyl-ethyl]4-methyl-2-[[3-[[7-(5-methyl-1,2,4-oxadiazol-3-yl)-1-isoquinolyl]amino]cyclobutanecarbonyl]amino]thiazole-5-carboxylate], the IC50 was 5 nM. Turning to `CCOC(=O)c1sc(NC(=O)CCNC(=O)c2cccc(C)c2)nc1C` [Example 1, Ethyl 4-methyl-2-(3-(3-methylbenzamido)propanamido)thiazole-5-carboxylate], the IC50 is 2730 nM. Turning to `CCOC(=O)c1sc(NC(=O)CCNC(=O)c2cccc(N3CCCC3)c2)nc1C` [Example 2, Ethyl 4-methyl-2-(3-(3-(pyrrolidin-1-yl)benzamido)propanamido)thiazole-5-carboxylate], the IC50 is 3970 nM. In the case of `CCOC(=O)c1sc(NC(=O)CCNC(=O)c2cccc(-n3cccn3)c2)nc1C` [Example 3, Ethyl 2-(3-(3-(1 H-pyrazol-1-yl)benzamido)propanamido)-4-methylthiazole-5-carboxylate], the half-maximal inhibitory concentration (IC50) worked out at 4570 nM. On to `CCOC(=O)c1sc(NC(=O)CCNC(=O)c2cccc(-c3noc(C)n3)c2)nc1C` [Example 4, Ethyl 4-methyl-2-(3-(3-(5-methyl-1,2,4-oxadiazol-3-yl)benzamido)propanamido)thiazole-5-carboxylate], for which the IC50 is 63 nM. As for `CCOC(=O)c1sc(NC(=O)CCNC(=O)c2ccc3c(c2)CCCC3)nc1C` [Example 5, Ethyl 4-methyl-2-(3-(5,6,7,8-tetrahydronaphthalene-2-carboxamido)propanamido)thiazole-5-carboxylate], the IC50 was found to be 1660 nM. As for `CCOC(=O)c1sc(NC(=O)CCNC(=O)c2cccc(-c3cnco3)c2)nc1C` [Example 6, Ethyl 4-methyl-2-(3-(3-(oxazol-5-yl)benzamido)propanamido)thiazole-5-carboxylate], the IC50 turned out to be 614 nM. With `CCOC(=O)c1sc(NC(=O)CCNC(=O)c2cccc(N3CCOCC3)c2)nc1C` [Example 7, Ethyl 4-methyl-2-(3-(3-morpholinobenzamido)propanamido)thiazole-5-carboxylate], the half-maximal inhibitory concentration (IC50) was found to be 15600 nM. `CCOC(=O)c1sc(NC(=O)[C@@H](O)CNC(=O)c2cccc(C)c2)nc1C` [Example 8, Ethyl (S)-2-(2-hydroxy-3-(3-methylbenzamido)propanamido)-4-methylthiazole-5-carboxylate]: the IC50 was 1210 nM. Next, `CCOC(=O)c1sc(NC(=O)CCNC(=O)c2cc(F)cc(C(=O)OC)c2)nc1C` [Example 10, Ethyl 2-[3-[(3-fluoro-5-methoxycarbonyl-benzoyl)amino]propanoylamino]-4-methyl-thiazole-5-carboxylate]: 36 nM; `CCOC(=O)c1sc(NC(=O)CCNC(=O)c2cccc(C(=O)OC)c2F)nc1C` [Example 11, Ethyl 2-[3-[(2-fluoro-3-methoxycarbonyl-benzoyl)amino]propanoylamino]-4-methyl-thiazole-5-carboxylate]: 1830 nM; `CCOC(=O)c1sc(NC(=O)CCNC(=O)c2cc(C(=O)OC)ccc2Cl)nc1C` [Example 12, Ethyl 2-[3-[(2-chloro-5-methoxycarbonyl-benzoyl)amino]propanoylamino]-4-methyl-thiazole-5-carboxylate]: 1100 nM. Next, `CCOC(=O)c1sc(NC(=O)CCNC(=O)c2cc(Cl)cc(C(=O)OC)c2)nc1C` [Example 13, Ethyl 2-[3-[(3-chloro-5-methoxycarbonyl-benzoyl)amino]propanoylamino]-4-methyl-thiazole-5-carboxylate]: 9 nM; `CCOC(=O)c1sc(NC(=O)CCNC(=O)c2ccc(C)c(C(=O)OC)c2)nc1C` [Example 14, Ethyl 2-[3-[(3-methoxycarbonyl-4-methyl-benzoyl)amino]propanoylamino]-4-methyl-thiazole-5-carboxylate]: 325 nM. With `CCOC(=O)c1sc(NC(=O)CCNC(=O)c2cc(C)cc(C(=O)OC)c2)nc1C` [Example 15, Ethyl 2-[3-[(3-methoxycarbonyl-5-methyl-benzoyl)amino]propanoylamino]-4-methyl-thiazole-5-carboxylate], the IC50 was 9 nM. For the compound `CCOC(=O)c1sc(NC(=O)CCNC(=O)c2cc(OC)cc(C(=O)OC)c2)nc1C` [Example 16, Ethyl 2-[3-[(3-methoxy-5-methoxycarbonyl-benzoyl)amino]propanoylamino]-4-methyl-thiazole-5-carboxylate], the half-maximal inhibitory concentration (IC50) was found to be 301 nM. For `CCOC(=O)c1sc(NC(=O)CCNC(=O)c2cc(C#N)cc(C(=O)OC)c2)nc1C` [Example 17, Ethyl 2-[3-[(3-cyano-5-methoxycarbonyl-benzoyl)amino]propanoylamino]-4-methyl-thiazole-5-carboxylate], the IC50 turned out to be 869 nM.

As for `CCOC(=O)c1sc(NC(=O)CCNC(=O)c2cc(Br)cc(C(=O)OC)c2)nc1C` [Example 18, Ethyl 2-[3-[(3-bromo-5-methoxycarbonyl-benzoyl)amino]propanoylamino]-4-methyl-thiazole-5-carboxylate], the IC50 was determined as 14 nM. Regarding `CCOC(=O)c1sc(NC(=O)CCNC(=O)c2cc(CC)cc(C(=O)OC)c2)nc1C` [Example 19, Ethyl 2-[3-[(3-ethyl-5-methoxycarbonyl-benzoyl)amino]-propanoylamino]-4-methyl-thiazole-5-carboxylate], the half-maximal inhibitory concentration (IC50) came out at 17 nM. Turning to `CCOC(=O)c1sc(NC(=O)CCNC(=O)c2cc(O)cc(C(=O)OC)c2)nc1C` [Example 20, Ethyl 2-[3-[(3-hydroxy-5-methoxycarbonyl-benzoyl)amino]-propanoylamino]-4-methyl-thiazole-5-carboxylate], the 50% inhibitory concentration (IC50) was determined as 737 nM. As to `CCOC(=O)c1sc(NCCCNC(=O)c2cccc(-c3noc(C)n3)c2)nc1C` [Example 21, Ethyl 4-methyl-2-[3-[[3-(5-methyl-1,2,4-oxadiazol-3-yl)benzoyl]amino]-propylamino]thiazole-5-carboxylate], the IC50 was 17100 nM.
